US12150919B2 (priority 2023, dated 2024)

Key:
Type in all cases: in vivo, white mice of Swiss strain
[1] = test system: doxorubicin-induced skin ulcers; experiment: micromorphic index of the skin at the ulcer; details: mice
Description: (§1) Research indicators during burn treatment including: (A) macromorphological index, (B) quantification of hydroxyproline concentration in damaged tissue, and (C) micromorphic index; wherein: • (A) macromorphological index: • Injury status at the burn: swelling, heat, redness, edema observed by eye and recorded by digital camera; • Measure the burn area at 7, 14, and 21 days after causing the burn.
(§2) Evaluation of the scar healing effect of the composition 100 and composition 200 in experiments. The model was based on previous studies of doxorubicin-induced skin ulcers in white mice of Swiss strain, both breeds, healthy, weight 30-35 g. White mice of both breeds of both breeds were randomly divided into 5 lots, each batch of 10 animals as follows: • Lot 1: Intradermal injection of physiological saline, no applying DMSO/composition 100/composition 200; • Lot 2: Intradermal injection of doxorubicin 1 mg/0.5 ml, to heal the ulcer naturally; • Lot 3: Intradermal injection of doxorubicin 1 mg/0.5 ml, for ulcer progression for 7 days. […]
(§3) Research indicators during scar healing including: (A) macromorphological index, (B) quantification of hydroxyproline concentration in damaged tissue, and (C) micromorphic index; all was samed as the burn treatment research experimental.

[2] = test system: doxorubicin-induced skin ulcers; experiment: hydroxyproline concentration in skin of mice with doxorubicin-induced ulcers; details: doxorubicin-induced skin ulcer model; at the end of the study (21 days of application)
Description: as §1, §2, §3

[3] = test system: doxorubicin-induced skin ulcers; experiment: doxorubicin-induced skin ulcers in white mice: ulcer area and macroscopic state
Description: as §1
Evaluation of the scar healing effect of the composition 100 and composition 200 in experiments. The model was based on previous studies of doxorubicin-induced skin ulcers in white mice of Swiss strain, both breeds, healthy, weight 30-35 g. White mice of both breeds of both breeds were randomly divided into 5 lots, each batch of 10 animals as follows: • Lot 1: Intradermal injection of physiological saline, no applying DMSO/composition 100/composition 200; • Lot 2: Intradermal injection of doxorubicin 1 mg/0.5 ml, to heal the ulcer naturally; • Lot 3: Intradermal injection of doxorubicin 1 mg/0.5 ml, for ulcer progression for 7 days. Then, drop 0.1 ml of DMSO on the ulcerated area, 2 times a day, use within 21 days; • Lot 4: Intradermal injection of doxorubicin 1 mg/0.5 ml, for ulcer progression for 7 days. Then, apply the composition 100 with dose of 0.1 ml/ulcer/time, 2 times/day, used for 21 days; and • Lot 5: Intradermal injection of doxorubicin 1 mg/0.5 ml, for ulcer progression for 7 days. Then, apply the composition 200 with dose of 0.1 ml/ulcer/time, with a frequency of twice daily, and used for 21 days.
as §3

C[S+](C)[O-] [DMSO, dimethyl sulfoxide]
micromorphic images of the skin at the ulcer [1]: the skin has regenerated to form the epidermis, no formation of skin-dependent glands, less blood vessels
Hydroxyproline concentrations in mouse skin (x ± SD) [2]: 15.04 ± 2.35 mg/g skin
Area of skin ulcers After 7 days (x ± SD) ([3]; 0.1 ml on ulcer 2 times a day, after 7 days): 50.13 ± 12.55 mm^2
Area of skin ulcers After 14 days Median (quartile) ([3]; 0.1 ml on ulcer 2 times a day, after 14 days, median): 7.13 mm^2
Area of skin ulcers After 21 days Median (quartile) ([3]; 0.1 ml on ulcer 2 times a day, after 21 days, median): 0 mm^2
macroscopic state of the ulcerated skin area ([3]; at the end of the study): significantly reduced and almost completely healed skin ulcers
Area of skin ulcers Before applied (x ± SD) ([3]; before applied (baseline)): 75.71 ± 14.02 mm^2
